In US7501425B1, “Bicyclic pyrimidines and bicyclic 3,4-dihydropyprimidines as inhibitors of cellular proliferation” (Warner Lambert Company, priority 1999, dated 2009):
pIC50: −log10 of the molar value.

Columns and labels:
cdc2/cyclinB = cdc2/cyclinB (Homo sapiens, UniProt P06493); assay: Cyclin-dependent kinase assay cdc2/cyclinB (cdk1/B); type: biochemical
Method: (§1) Cyclin-Dependent Kinase Assays (cdk2/cyclinE, cdk2/cyclinA, cdc2/cyclinB)
(§2) All components except the ATP were added to the wells, and the plate was placed on a plate mixer for 2 minutes. The reaction was begun by addition of [^32P]ATP, and the plate was incubated at 25° C. for 15 minutes. The reaction was terminated by addition of 0.1 mL of 20% TCA. The plate was kept at 4° C. for at least 1 hour to allow the substrate to precipitate. The wells were then washed five times with 0.2 mL of 10% TCA and ^32P incorporation determined with a beta plate counter (Wallac Inc., Gaithersburg, Md.).

cdk2/cyclinA = cdk2/cyclinA (Homo sapiens, UniProt P24941); assay: Cyclin-dependent kinase assay cdk2/cyclinA; type: biochemical
Method: as §1, §2

cdk2/cyclinE = cdk2/cyclinE (Homo sapiens, UniProt P24941); assay: Cyclin-dependent kinase assay cdk2/cyclinE; type: biochemical; conditions: for pIC50: read-out: cdk2/E IC50; for inhibition at 40 µM: read-out: cdk2/E % Inhibition at 40 μM
Method: as §1, §2

cdk4/D = cdk4/D (Homo sapiens, UniProt P11802); assay: Cyclin-Dependent Kinase 4 (cdk4) enzyme assay, 32P incorporation; type: biochemical; conditions: for pIC50: 25 μM ATP, retinoblastoma substrate
Sequence of cdk4/D (P11802 whole entry, species assumed): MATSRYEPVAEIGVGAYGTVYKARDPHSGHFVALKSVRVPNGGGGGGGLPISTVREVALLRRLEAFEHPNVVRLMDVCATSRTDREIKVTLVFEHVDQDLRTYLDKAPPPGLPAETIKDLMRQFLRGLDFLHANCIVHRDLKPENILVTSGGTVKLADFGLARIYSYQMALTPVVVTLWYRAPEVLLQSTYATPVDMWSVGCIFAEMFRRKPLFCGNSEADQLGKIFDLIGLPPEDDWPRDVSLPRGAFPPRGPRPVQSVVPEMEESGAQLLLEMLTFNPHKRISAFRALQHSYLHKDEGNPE
Sequence of cdk4/D (P24385 whole entry partner, species assumed): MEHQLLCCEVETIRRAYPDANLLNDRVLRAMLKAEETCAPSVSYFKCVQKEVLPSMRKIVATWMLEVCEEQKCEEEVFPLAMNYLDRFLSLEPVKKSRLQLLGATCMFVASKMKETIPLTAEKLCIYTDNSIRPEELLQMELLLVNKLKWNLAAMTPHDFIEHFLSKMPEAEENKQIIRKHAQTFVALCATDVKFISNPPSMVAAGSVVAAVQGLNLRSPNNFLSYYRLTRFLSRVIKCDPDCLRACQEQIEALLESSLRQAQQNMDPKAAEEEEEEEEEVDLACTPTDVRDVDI
Method: A typical assay, for instance, measures inhibitory activity against the cyclin D dependent kinase 4 enzyme (cdk4/D). […] The cdk4 assay was carried out as follows.
Cyclin-Dependent Kinase 4 (cdk4) Assay
Enzyme assays for IC50 determinations (Tables 1 and 2) and kinetic evaluation were performed in 96 well filter plates (Millipore MADVN6550). The total volume was 0.1 mL containing a final concentration of 20 mM TRIS (tris[hydroxymethyl]aminomethane), at pH 7.4, 50 mM NaCl, 1 mM dithiothreitol, 10 mM MgCl2, 25 μM ATP containing 0.25 μCi of [^32P]ATP, 20 ng of cdk4, 1 μg of retinoblastoma, and appropriate dilutions of a compound of the present invention. All components except the ATP were added to the wells, and the plate was placed on a plate mixer for 2 minutes. The reaction was started by adding [^32P]ATP and the plate was incubated at 25° C. for 15 minutes. The reaction was terminated by addition of 0.1 mL of 20% trichloroacetic acid (TCA). The plate was kept at 4° C. for at least 1 hour to allow the substrate to precipitate. The wells were then washed five times with 0.2 mL of 10% TCA and ^32p incorporation was determined with a beta plate counter (Wallac Inc., Gaithersburg. MD).

[1] = target: T1, PDGF-β receptor tyrosine kinase (Mus musculus, UniProt P05622); assay: PDGF receptor tyrosine kinase assay; type: biochemical; conditions: intracellular tyrosine kinase domain, SF9 lysate
T1 construct: amplify a fragment of DNA that codes for the intracellular tyrosine kinase domain; made in house; host or cells: SF9 insect cells (baculovirus)
T1 sequence (P05622 599-961 limits assumed): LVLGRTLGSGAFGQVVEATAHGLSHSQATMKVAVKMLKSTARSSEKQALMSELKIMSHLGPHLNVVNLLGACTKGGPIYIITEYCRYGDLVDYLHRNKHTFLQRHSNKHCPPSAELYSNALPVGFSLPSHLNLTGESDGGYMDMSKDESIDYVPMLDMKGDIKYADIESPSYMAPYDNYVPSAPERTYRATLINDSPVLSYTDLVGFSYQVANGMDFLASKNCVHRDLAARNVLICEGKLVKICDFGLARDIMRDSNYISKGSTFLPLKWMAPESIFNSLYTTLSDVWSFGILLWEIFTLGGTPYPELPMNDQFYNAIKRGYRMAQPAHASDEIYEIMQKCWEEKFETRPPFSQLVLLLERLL
Method: The assays used to determine these activities were carried out as follows:
PDGF and FGF Receptor Tyrosine Kinase Assays
PCR primers were designed to amplify a fragment of DNA that codes for the intracellular tyrosine kinase domain. The fragment was inserted into a baculovirus vector, cotransfected with AcMNPV DNA, and the recombinant virus isolated. SF9 insect cells were infected with the virus to overexpress the protein, and the cell lysate was used for the assay. Assays were performed in 96-well plates (100 μL/incubation/well), and conditions were optimized to measure the incorporation of ^32P from γ^32P-ATP into a glutamate-tyrosine co-polymer substrate. Briefly, to each well was added 82.5 μL of incubation buffer containing 25 mM Hepes (pH 7.0), 150 mM NaCl, 0.1% Triton X-100, 0.2 mM PMSF, 0.2 mM Na3VO4, 10 mM MnCl2, and 750 μg/mL of Poly (4:1) glutamate-tyrosine followed by 2.5 μL of inhibitor and 5 μL of enzyme lysate (7.5 μg/μL FGF-TK or 6.0 μg/μL PDGF-TK) to initiate the reaction. Following a 10 minute incubation at 25° C., […] of γ^32P-ATP (0.4 μCi plus 50 μM ATP) was added to each well, and samples were incubated for an additional 10 minutes at 25° C. […] Nonspecific activity was defined as radioactivity retained on the filters following incubation of samples with buffer alone (no enzyme). […]

c-Src = target: T2, c-Src (Homo sapiens, UniProt P12931); assay: c-Src kinase assay; type: biochemical; conditions: 5 μM ATP, poly GluTyr substrate
T2 construct: made in house; host or cells: baculovirus infected insect cells
T2 sequence (P12931 whole entry, species assumed): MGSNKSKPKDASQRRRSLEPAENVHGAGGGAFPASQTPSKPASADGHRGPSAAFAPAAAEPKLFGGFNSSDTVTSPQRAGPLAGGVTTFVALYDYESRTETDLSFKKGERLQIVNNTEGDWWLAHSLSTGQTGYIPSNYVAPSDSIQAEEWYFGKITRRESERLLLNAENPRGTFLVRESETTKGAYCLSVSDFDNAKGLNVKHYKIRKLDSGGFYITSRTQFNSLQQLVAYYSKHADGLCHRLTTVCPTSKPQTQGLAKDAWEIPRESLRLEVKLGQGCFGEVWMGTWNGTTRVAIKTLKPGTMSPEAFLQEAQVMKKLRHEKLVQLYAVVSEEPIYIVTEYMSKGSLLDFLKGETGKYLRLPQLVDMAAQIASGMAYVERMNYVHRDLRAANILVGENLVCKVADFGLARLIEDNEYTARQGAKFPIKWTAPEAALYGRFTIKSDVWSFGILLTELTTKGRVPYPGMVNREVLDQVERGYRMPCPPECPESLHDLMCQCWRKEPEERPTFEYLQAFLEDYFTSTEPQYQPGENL
Method: Several of the invention compounds have been evaluated in a standard assay to measure their ability to inhibit cellular Src protein kinase (c-Src). […] The assay was carried out as follows:
c-Src kinase was purified from baculovirus infected insect cell lysates using an antipeptide monoclonal antibody directed against the N-terminal amino acids (amino acids 2-17) of c-Src. The antibody, covalently linked to 0.65 μm latex beads, was added to a suspension of insect cell lysis buffer comprised of 150 mM NaCl, 50 mM Tris pH 7.5, 1 mM DTT, 1% NP-40, 2 mM EGTA, 1 mM sodium vanadate, 1 mM PMSF, 1 μg/mL each of leupeptin, pepstatin, and aprotinin. Insect cell lysate containing c-Src protein was incubated with these beads for 3 to 4 hours at 4° C. with rotation. At the end of the lysate incubation, the beads were rinsed three times in lysis buffer, resuspended in lysis buffer containing 10% glycerol, and frozen. These latex beads were thawed, rinsed three times in assay buffer (40 mM Tris, pH 7.5, 5 mM […]) and suspended in the same buffer. In a Millipore 96-well plate with a 0.65 μm polyvinylidine membrane bottom were added the reaction components: 10 μL c-Src beads, 10 μL of 2.5 mg/mL poly GluTyr substrate, 5 μM ATP containing 0.2 μCi labeled ^32P-ATP, 5 μL DMSO containing inhibitors or as a solvent control, and buffer to make the final volume 125 μL. The reaction was started at room temperature by addition of the ATP and quenched 10 minutes later by the addition of 125 μL of 30% TCA, 0.1 M sodium pyrophosphate for 5 minutes on ice. The plate was then filtered and the wells washed with two […] aliquots of 15% TCA, 0.1 M pyrophosphate. The filters were then punched, counted in a liquid scintillation counter, and the data examined for inhibitory activity in comparison to a known inhibitor such as erbstatin. The method is also described in J. Med. Chem., 1994; 37:598-609. Tables 5 and 6 list c-Src inhibitory concentrations (IC50) for representative invention compounds.

Sequence of cdc2/cyclinB (P06493 whole entry, species assumed): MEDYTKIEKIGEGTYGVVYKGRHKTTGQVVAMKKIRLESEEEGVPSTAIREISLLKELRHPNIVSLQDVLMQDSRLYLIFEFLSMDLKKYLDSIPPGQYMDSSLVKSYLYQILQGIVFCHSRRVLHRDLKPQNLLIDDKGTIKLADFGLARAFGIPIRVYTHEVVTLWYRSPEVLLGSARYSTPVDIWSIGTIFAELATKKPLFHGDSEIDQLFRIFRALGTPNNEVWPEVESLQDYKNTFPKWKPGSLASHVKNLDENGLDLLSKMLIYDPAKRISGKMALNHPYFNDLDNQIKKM
Sequence of cdc2/cyclinB (P14635 whole entry partner, species assumed): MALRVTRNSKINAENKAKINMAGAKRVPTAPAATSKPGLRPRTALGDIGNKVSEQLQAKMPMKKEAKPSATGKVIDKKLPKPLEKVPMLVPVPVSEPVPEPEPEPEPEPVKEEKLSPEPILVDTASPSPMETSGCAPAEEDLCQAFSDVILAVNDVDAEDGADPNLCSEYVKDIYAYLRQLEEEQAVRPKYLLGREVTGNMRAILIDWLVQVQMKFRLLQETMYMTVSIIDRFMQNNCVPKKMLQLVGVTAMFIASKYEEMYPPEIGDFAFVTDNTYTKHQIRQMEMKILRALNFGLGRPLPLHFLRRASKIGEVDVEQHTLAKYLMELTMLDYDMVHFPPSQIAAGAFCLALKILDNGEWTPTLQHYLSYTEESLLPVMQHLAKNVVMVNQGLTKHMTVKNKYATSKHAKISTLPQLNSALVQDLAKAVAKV

Compound | pIC50 (cdc2/cyclinB) | pIC50 (cdk2/cyclinA) | pIC50 (cdk2/cyclinE) | inhibition at 40 µM (cdk2/cyclinE) | melting point | also measured
O=C1NCc2cnc(Nc3ccc(-n4cccn4)cc3)nc2N1C1CCCC1 [Example 12, 1-Cyclopentyl-7-[4-(pyrazol-1-yl)phenylamino]-3,4-dihydro-pyrimido[4,5-d]pyrimidin-2(1H)-one] | 4.91 | 5.88 | 5.34 | – | – | pIC50 (cdk4/D): 5.74
O=C1NCc2cnc(Nc3ccc(-n4cccc4)cc3)nc2N1C1CCCC1 [Example 14, 1-Cyclopentyl-7-[4-(pyrrol-1-yl)phenylamino]-3,4-dihydro-pyrimido[4,5-d]pyrimidin-2(1H)-one] | – | – | – | 38% | > 200 °C (dec.) | –
CN(C)C1CCN(c2ccc(Nc3ncc4c(n3)N(C3CCCC3)C(=O)NC4)cc2)CC1 [Example 17, 1-Cyclopentyl-7-{4-[4-(dimethylamino)piperidin-1-yl]phenylamino}-3,4-dihydro-pyrimido[4,5-d]pyrimidin-2(1H)-one] | 4.69 | 5.88 | 5.45 | – | > 200 °C (dec.) | pIC50 [1]: 6.49; pIC50 (cdk4/D): 6.51; pIC50 (c-Src): 6.43
O=C1NCc2cnc(Nc3ccc(N4CCC(CCN5CCOCC5)CC4)cc3)nc2N1C1CCCC1 [Example 21] | 4.44 | 5.86 | 5.52 | – | – | pIC50 [1]: 5.96; pIC50 (cdk4/D): 6.78; pIC50 (c-Src): 5.80
CC(C)N1C(=O)NCc2cnc(Nc3ccc(N4CCN(C)CC4)cc3)nc21 [Example 22, 1-Isopropyl-7-[4-(4-methylpiperazin-1-yl)phenylamino]-3,4-dihydro-pyrimido[4,5-d]pyrimidin-2(1H)-one] | – | – | – | 68% | 234 to 237 °C (dec.) | inhibition at 40 µM (cdc2/cyclinB): 25%
CC(C)N1C(=O)NCc2cnc(Nc3ccc(N4CCC(CCCN5CCOCC5)CC4)cc3)nc21 [Example 26, 1-Isopropyl-7-{4-[4-(3-(morpholin-1-yl)propyl)piperidin-1-yl]phenylamino}-3,4-dihydro-pyrimido[4,5-d]pyrimidin-2(1H)-one] | < 4.40 | 5.19 | 4.57 | – | 203 to 205 °C (dec.) | –
CN1CCN(c2ccc(Nc3ncc4c(n3)N(C3CC5CCC3C5)C(=O)NC4)cc2)CC1 (stereo not drawn) [Example 27, 1-Bicyclo[2.2.1]hept-2-yl-7-[4-(4-methylpiperazin-1-yl)phenylamino]-3,4-dihydro-pyrimido[4,5-d]pyrimidin-2(1H)-one (exo)] | 5.01 | 6.28 | 5.96 | – | 251 to 254 °C (dec.) | pIC50 (cdk4/D): 6.11
CN1CCN(c2ccc(Nc3ncc4c(n3)N(C)C(=O)NC4)cc2)CC1.O=C(O)C(F)(F)F [Example 28, 1-Methyl-7-[4-(4-methylpiperazin-1-yl)phenylamino]-3,4-dihydro-pyrimido[4,5-d]pyrimidin-2(1H)-one; compound with trifluoroacetic acid] | – | – | – | 22% | 234 to 235 °C (dec.) | inhibition at 40 µM (cdk4/D): 15%
CN1C(=O)NCc2cnc(Nc3ccc(N4CCC(O)CC4)cc3)nc21.O=C(O)C(F)(F)F [Example 29, 7-[4-(4-Hydroxypiperidin-1-yl)phenylamino]-1-methyl-3,4-dihydro-pyrimido[4,5-d]pyrimidin-2(1H)-one; Compound with trifluoroacetic acid] | – | – | – | 28% | 228 to 229 °C (dec.) | –
CN1C(=O)NCc2cnc(Nc3ccc(-n4cccn4)cc3)nc21.O=C(O)C(F)(F)F [Example 31, 1-Methyl-7-[4-(pyrazol-1-yl)phenylamino]-3,4-dihydro-pyrimido[4,5-d]pyrimidin-2(1H)-one; Compound with trifluoroacetic acid] | – | – | – | 21% | 250 to 251 °C (dec.) | inhibition at 40 µM (cdk4/D): 18%
CC(C)n1c(=O)ncc2cnc(Nc3ccc(N4CCN(C)CC4)cc3)nc21 [Example 40, 1-Isopropyl-7-[4-(4-methylpiperazin-1-yl)phenylamino]pyrimido[4,5-d]pyrimidin-2(1H)-one] | – | – | – | – | 228 to 229 °C (dec.) | inhibition at 40 µM (cdc2/cyclinB): 42%
CN1CCN(c2ccc(Nc3ncc4cnc(=O)n(C)c4n3)cc2)CC1 [Example 45, 1-Methyl-7-[4-(4-methylpiperazin-1-yl)phenylamino]pyrimido[4,5-d]pyrimidin-2(1H)-one] | – | – | – | 16% | 259 to 260 °C (dec.) | –
Cn1c(=O)ncc2cnc(Nc3ccc(-n4cccn4)cc3)nc21 [Example 47, 1-Methyl-7-[4-(pyrazol-1-yl)phenylamino]pyrimido[4,5-d]pyrimidin-2(1H)-one] | – | – | – | 41% | > 290 °C (dec.) | –
C=CCn1c(=O)c2cnc(Nc3ccc(N4CCN(C)CC4)cc3)nc2n(C(C)C)c1=O [Example 70, 3-Allyl-1-isopropyl-7-[4-(4-methylpiperazin-1-yl)phenylamino]-1H-pyrimido[4,5-d]pyrimidine-2,4-dione] | – | – | – | 0% | 176 to 177 °C | –
C=CCn1c(=O)c2cnc(Nc3ccc(OCCN(CC)CC)cc3)nc2n(C(C)C)c1=O [Example 72, 3-Allyl-7-[4-(2-Diethylaminoethoxy)phenylamino]-1-isopropyl-1H-pyrimido[4,5-d]pyrimidine-2,4-dione] | – | – | – | 0% | 90 to 96 °C | –
CCN(CC)CCOc1ccc(Nc2ncc3c(=O)n(Cc4ccc(OC)cc4)c(=O)n(C(C)C)c3n2)cc1 [Example 73, 7-[4-(2-Diethylaminoethoxy)phenylamino]-1-isopropyl-3-(4-methoxybenzyl)-1H-pyrimido[4,5-d]pyrimidine-2,4-dione] | – | – | – | – | 139 to 141 °C | –
